From patent publication EP0080305A1, “Antiviral 2'-deoxyuridines, their preparation and use” (BEECHAM GROUP PLC, priority 1981, dated 1983)
Counter-ions that a name gives are not always drawn. Like-named read-outs stand apart in the source and are kept apart here.

Tests used:
[1] = test system: Herpes simplex type 1 virus (HFEM strain); test: Plaque reduction test in Vero cells infected with Herpes simplex type 1 virus; format: cell-based
Procedure: (§1) Vero (African Green Monkey Kidney) cells were grown to confluence in 6 well multidishes, each well being 3.5 cm in diameter. The cells were incubated with Herpes simplex type 1 virus (HFEM strain) and overlaid with 0.5 mL of 0.9% agarose (w/v) in maintenance medium containing the test compound at a range of concentrations from 3 µg/mL in half-log dilution steps. The virus infected cultures were then incubated at 37 °C for 6 days before fixing in 4% formaldehyde solution and staining with carbolfuchsin. The dishes were then examined to find what concentration of test compound causing a 50% reduction in the number of virus plaques formed (PDD50 value) and the minimum concentration of test compound which killed the cell monolayer, leaving a clear zone devoid of cells and virus plaques (MTD).

[2] = test system: Vero (African Green Monkey Kidney) cells; test: Minimum concentration killing the Vero cell monolayer, read in the plaque reduction test; format: cell-based; details: minimum concentration which killed the cell monolayer; virus-infected Vero cells, 6 days at 37°C
Procedure: as §1

[3] = as above; format: cell-based, African Green Monkey; details: african green monkey; minimum concentration which killed the cell monolayer; virus-infected Vero cells, 6 days at 37°C; read-out: MTD
Procedure: as §1

[4] = concentration causing a 50% reduction in the number of virus plaques, 6 days at 37°C
[5] = same PDD50 values given in µM, 6 days at 37°C, read-out: PDD50 (the source's name)
[6] = Human alphaherpesvirus 1, 144 h, concentration causing a 50% reduction in the number of virus plaques, 6 days at 37°C, read-out: PDD50 (the source's name)
[7] = Human alphaherpesvirus 1, 144 h, same PDD50 values given in µM, 6 days at 37°C, read-out: PDD50 (the source's name)

| Molecule | PDD50 [1, 4] [µg/mL] | IC50 [1, 5] [µM] | MTD [2] [µg/mL] | IC50 [1, 6] [µg/mL] | IC50 [1, 7] [µM] | MCC at 144 h [3] [µg/mL] | other results |
| --- | --- | --- | --- | --- | --- | --- | --- |
| E-5-(2-bromovinyl)-3',5'-di-L-lysyl-2'-deoxyuridine tetrakis trifluoroacetate dihydrate [Example 40] | 0.19 | 0.18 | >100 |  |  |  |  |
| E-5-(2-Bromovinyl)-3',5'-di-L-leucyl-2'-deoxyuridine bis trihydrogenpyrophosphate [Example 41] | 0.55 | 0.6 | >100 |  |  |  |  |
| E-5-(2-Bromovinyl)-3',5'-di-L-alanyl-2'-deoxyuridine bis trifluoroacetate [Example 38] | 0.26 | 0.37 | >100 |  |  |  |  |
| CC(C)C[C@H](N)C(=O)OC[C@H]1O[C@@H](n2cc(/C=C/Br)c(=O)[nH]c2=O)C[C@@H]1OC(=O)[C@@H](N)CC(C)C [Example 18, E-5-(2-bromovinyl)-3',5'-di-L-leucyl-2'-deoxyuridine bis bisulphate salt] | 0.28 |  | >100 |  |  |  | IC50 ([1]; read-out: PDD50, same PDD50 values given in µM, 6 days at 37°C): 0.37 µM |
| CSCC[C@H](NC(=O)OC(C)(C)C)C(=O)OC[C@H]1O[C@@H](n2cc(/C=C/Br)c(=O)[nH]c2=O)C[C@@H]1OC(=O)[C@H](CCSC)NC(=O)OC(C)(C)C [Example 21, E-5-(2-Bromovinyl)-3',5'-di-(t-butoxy-carbonyl-L-methionyl)-2'-deoxyuridine] |  |  |  | 1.71 | 2.15 | > 100 |  |
| E-5-(2-Bromovinyl)-5'-O-phenylalanyl-2'-deoxyuridine trifluoroacetate [Example 9] | 0.19 | 0.32 | >100 |  |  |  |  |
| E-5-(2-Bromovinyl)-3',5'-di-glycyl-2'-deoxyuridine bis bisulphate [Example 17] | 0.49 | 0.76 | >100 |  |  |  |  |
| CC(C)(C)OC(=O)NCC(=O)OC[C@H]1O[C@@H](n2cc(/C=C/Br)c(=O)[nH]c2=O)C[C@@H]1O [Example 6, E-5-(2-Bromovinyl)-5'-O-(tert.-butoxycarbonylglycyl)-2'-deoxyuridine] |  |  |  | 0.54 | 1.1 | > 100 |  |
| CC(C)(C)OC(=O)N1CCC[C@H]1C(=O)OC[C@H]1O[C@@H](n2cc(/C=C/Br)c(=O)[nH]c2=O)C[C@@H]1OC(=O)[C@@H]1CCCN1C(=O)OC(C)(C)C [Example 27, E-5-(2-Brcmovinyl)-3',5'-di-(t-butoxycarbonyl-L-prolyl)-2'-deoxyuridine] |  |  |  | 3.51 | 4.83 | 100 |  |
| CC(C)(C)OC(=O)N[C@@H](CCC(N)=O)C(=O)OC[C@H]1O[C@@H](n2cc(/C=C/Br)c(=O)[nH]c2=O)C[C@@H]1OC(=O)[C@H](CCC(N)=O)NC(=O)OC(C)(C)C [Example 25, E-5-(2-Bromovinyl)-3',5'-di-(t-butoxycarbonyl-L-glutaminyl)-2'-deoxyuridine] |  |  |  | 0.47 | 0.6 | > 100 |  |
| CC(C)(C)OC(=O)NCC(=O)O[C@H]1C[C@H](n2cc(/C=C/Br)c(=O)[nH]c2=O)O[C@@H]1CO [Example 5, E-5-(2-Bromovinyl)-3'-O-(tert.butoxycarbonylglycyl)-2'-deoxyuridine] |  |  |  | 0.48 | 0.98 | > 100 |  |
| NC(Cc1ccccc1)C(=O)OC[C@H]1O[C@@H](n2cc(/C=C/Br)c(=O)[nH]c2=O)C[C@@H]1OC(=O)C(N)Cc1ccccc1 (stereo partly drawn) [Example 7, E-5-(2-Bromovinyl)-3',5'-di-O-phenylalanyl-2'-deoxyuridine bis trifluoroacetate] |  |  | >100 |  |  |  | PDD50 ([1]; concentration causing a 50% reduction in the number of virus plaques, 6 days at 37°C, bis trifluoroacetate): 0.14 µg/mL; IC50 ([1]; read-out: PDD50, same PDD50 values given in µM, 6 days at 37°C, bis trifluoroacetate): 0.16 µM |
| CC(C)C[C@H](N)C(=O)OC[C@H]1O[C@@H](n2cc(/C=C/Br)c(=O)[nH]c2=O)C[C@@H]1OC(=O)[C@@H](N)CC(C)C [Example 16, E-5-(2-Bromovinyl)-3',5'-di-L-leucyl-2'-deoxyuridine trifluoroacetate] |  |  |  |  |  | > 100 | PDD50 ([1]; concentration causing a 50% reduction in the number of virus plaques, 6 days at 37°C, trifluoroacetate): 0.02 µg/mL; IC50 ([1]; read-out: PDD50, same PDD50 values given in µM, 6 days at 37°C, trifluoroacetate): 0.025 µM |
